Assay results taken from patent publication US9724352B2, “Pyrrolo[2,1-F[1,2,4]triazine compounds, preparation methods and applications thereof” (Shanghai Institute of Materia Medica, Chinese Academy of …, priority 2012, dated 2017).

Assays:
[1] = system: endometrial cancer cells E-RL95-2; experiment: Proliferation of human cancer cell panel; assay type: cell-based; conditions: read-out: inhibitory activity on proliferation
Description: (§1) I-30 and I-33 were selected to test their activity on the proliferation of human cancer cells originated from different tissue types.

[2] = system: gastric cancer cells G-MKN-45; experiment: Proliferation of human cancer cell panel; assay type: cell-based; conditions: read-out: inhibitory activity on proliferation
Description: as §1

LG-NCI-H23 = experiment: Proliferation of human cancer cell panel; assay type: cell-based; conditions: read-out: inhibitory activity on proliferation
Description: as §1

[3] = system: rhabdomyosarcoma cells S-RH30; experiment: Proliferation of human cancer cell panel; assay type: cell-based; conditions: read-out: inhibitory activity on proliferation
Description: as §1

LG-NCI-H460 = experiment: Proliferation of human cancer cell panel; assay type: cell-based; conditions: read-out: inhibitory activity on proliferation
Description: as §1

P-PC-3 = experiment: Proliferation of human cancer cell panel; assay type: cell-based; conditions: read-out: inhibitory activity on proliferation
Description: as §1

[4] = system: colorectal cancer cells C-LOVO; experiment: Proliferation of human cancer cell panel; assay type: cell-based; conditions: read-out: inhibitory activity on proliferation
Description: as §1

[5] = system: hepatoma cells L-BEL-7402; experiment: Proliferation of human cancer cell panel; assay type: cell-based; conditions: read-out: inhibitory activity on proliferation
Description: as §1

B-BT474 = experiment: Proliferation of human cancer cell panel; assay type: cell-based; conditions: read-out: inhibitory activity on proliferation
Description: as §1

[6] = system: colon cancer cells C-HCT-116; experiment: Proliferation of human cancer cell panel; assay type: cell-based; conditions: read-out: inhibitory activity on proliferation
Description: as §1

O-SKOV-3 = experiment: Proliferation of human cancer cell panel; assay type: cell-based; conditions: read-out: inhibitory activity on proliferation
Description: as §1

[7] = system: PI3K signaling in human rhabdomyosarcoma Rh30 cells; experiment: PI3K signaling after IGF-1 stimulation (Western blot), Rh30; assay type: cell-based; conditions: compound 1 h, IGF-1 10 minutes
Protocol: (§2) Rh30 and U87MG cells were seeded in 12-well plates at 2×10^5 cells/well. On the next day, cells were incubated in fresh serum-free culture media subjected to starvation for 24 hours. Cells were then treated with different concentrations of compound I-33 for 1 h. After stimulated with IGF-1 for 10 minutes, the lysed cells were collected, and 4×SDS loading buffer [200 mM Tris.Cl (pH 6.8), 400 mM DTT, 8% SDS (sodium dodecyl sulfate), 0.4% bromophenol blue, 40% glycerol] was added. The cell lysates were boiled for 10 minutes. Aliquot was loaded on polyacrylamide gel and electrophoresis was performed in Tris-glycine electrophoresis buffer (25 mM Tris, 250 mM glycine, 0.1% SDS) at 80-100 V for 2-2.5 hours. The proteins were transformed from gel to nitrocellulose filter membrane by using semidry method. The filter membrane was blocked with blocking solution containing 5% skim milk powder (5% skim milk powder, 20 mM Tris-HCl (pH 7.2-7.4), 150 mM NaCl, 0.1% (v/v) Tween20) in a shaker at room temperature for 2 hours. Then specific primary antibody was added and hybridized at 4° C. overnight. The membrane was washed by washing buffer [20 mM Tris-HCl (pH 7.2-7.4), 150 mM NaCl, 0.1% (v/v) Tween20] for three times at room temperature, 15 minutes each time. […]

[8] = system: human rhabdomyosarcoma Rh30 cells; experiment: Proliferation of Rh30 cells (sulforhodamine B); assay type: cell-based; conditions: Homo sapiens, Rh30, 72 h; read-out: IC50 against proliferation of Rh30 cells
Outline: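 Rh30 cells (3000/well) were treated after adherence with compound at 10, 3, 1, 0.3 or 0.1 μM for 72 h. TCA-fixed cells were stained with sulforhodamine B, dye solubilised in Tris buffer and OD read at 560 nm.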

PI3Kα = PI3Kα (Homo sapiens (Human), UniProt P42336); experiment: Inhibition on PI3K kinase activity (Kinase-Glo Plus luminescent assay); assay type: biochemical; conditions: 2 μM ATP, 1 hour at room temperature
Protocol: The activity of purified kinase was detected with Kinase-Glo® Plus kinase luminescent assay by measuring the amount of the remaining […] in the solution after the kinase reaction was completed. […] After reaction was performed for 1 hour at room temperature, 10 μL of Kinase Glo-Plus mixture was added and incubated for 1 hour to quench the reaction.

[9] = system: human esophagus cancer KYSE 410 xenograft; experiment: Growth of KYSE 410 xenograft subcutaneously transplanted in nude mouse; assay type: in vivo; conditions: for Relative tumor proliferation rate T/C: 50 mg/kg p.o. once every day
Protocol: Well-developed tumors in nude mice were cut into 1.5 mm3 fragments and transplanted s.c. into the right flank of nude mice under sterile conditions. The diameters of subcutaneously transplanted tumours in nude mice were measured with a vernier calipe. When the tumour reached a volume 170 mm3, the mice were randomly assigned into two treatment groups: CYH33 50 mg/kg group or BYL-719 50 mg/kg group. Control groups were given the same amount of normal saline, and treatment groups received tested compounds (p.o). Compounds were administered orally once every day for 3 weeks. Evaluation index of antitumor activity was relative tumor proliferation rate T/C (%), the calculation formula of which was as follows: T/C (%)=(TRTV/CRTV)×100%, TRTV:RTV of treatment group; CRTV:RTV of negative control group.

[10] = system: PI3K signaling in human glioma U87MG cells; experiment: PI3K signaling after IGF-1 stimulation (Western blot), U87MG; assay type: cell-based; conditions: compound 1 h, IGF-1 10 minutes
Protocol: as §2

KYSE30 = experiment: Proliferation of human esophagus cancer cells; assay type: cell-based
Description: (§3) Compounds BYL719 (shown below), CYH33 (compound I-33) and I-27 were selected to test their activity on the proliferation of 11 species of human esophagus cancer cells.
(§4) The results reported in FIG. 3 were the average GI50 value and SD value of three experiments. The results were arranged according to the GI50 value of CYH33.

KYSE150 = experiment: Proliferation of human esophagus cancer cells; assay type: cell-based
Description: as §3, §4

Detroit 562 = experiment: Proliferation of human esophagus cancer cells; assay type: cell-based
Description: as §3, §4

PI3Kα, sequence (P42336 whole entry): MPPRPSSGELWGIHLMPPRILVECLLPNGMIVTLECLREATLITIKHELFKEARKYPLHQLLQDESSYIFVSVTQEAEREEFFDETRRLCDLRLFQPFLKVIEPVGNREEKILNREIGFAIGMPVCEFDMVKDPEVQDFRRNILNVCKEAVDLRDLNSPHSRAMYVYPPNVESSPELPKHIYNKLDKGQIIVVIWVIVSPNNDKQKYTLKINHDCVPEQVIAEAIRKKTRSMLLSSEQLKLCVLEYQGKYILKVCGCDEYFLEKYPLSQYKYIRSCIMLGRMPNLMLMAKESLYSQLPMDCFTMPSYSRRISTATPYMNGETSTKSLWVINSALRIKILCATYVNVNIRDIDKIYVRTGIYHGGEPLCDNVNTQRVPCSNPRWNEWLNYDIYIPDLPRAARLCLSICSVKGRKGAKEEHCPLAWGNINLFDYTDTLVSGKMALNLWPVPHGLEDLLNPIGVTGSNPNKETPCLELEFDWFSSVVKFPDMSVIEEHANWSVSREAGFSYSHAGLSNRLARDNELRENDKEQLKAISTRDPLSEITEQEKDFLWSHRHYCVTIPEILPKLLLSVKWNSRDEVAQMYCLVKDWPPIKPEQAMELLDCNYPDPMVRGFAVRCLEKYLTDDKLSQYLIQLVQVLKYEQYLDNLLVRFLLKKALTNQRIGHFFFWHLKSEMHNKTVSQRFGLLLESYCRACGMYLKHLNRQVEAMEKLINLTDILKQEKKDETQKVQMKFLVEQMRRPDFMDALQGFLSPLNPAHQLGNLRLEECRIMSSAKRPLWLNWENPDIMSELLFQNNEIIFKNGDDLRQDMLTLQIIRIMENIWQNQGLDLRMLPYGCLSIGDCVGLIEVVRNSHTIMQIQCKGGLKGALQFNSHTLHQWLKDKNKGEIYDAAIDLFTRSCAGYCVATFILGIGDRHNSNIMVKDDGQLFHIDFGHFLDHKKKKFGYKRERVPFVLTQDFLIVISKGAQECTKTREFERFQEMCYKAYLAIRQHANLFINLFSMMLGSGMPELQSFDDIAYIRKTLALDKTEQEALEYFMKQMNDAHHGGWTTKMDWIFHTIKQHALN
PI3Kα, sequence (P27986 whole entry partner): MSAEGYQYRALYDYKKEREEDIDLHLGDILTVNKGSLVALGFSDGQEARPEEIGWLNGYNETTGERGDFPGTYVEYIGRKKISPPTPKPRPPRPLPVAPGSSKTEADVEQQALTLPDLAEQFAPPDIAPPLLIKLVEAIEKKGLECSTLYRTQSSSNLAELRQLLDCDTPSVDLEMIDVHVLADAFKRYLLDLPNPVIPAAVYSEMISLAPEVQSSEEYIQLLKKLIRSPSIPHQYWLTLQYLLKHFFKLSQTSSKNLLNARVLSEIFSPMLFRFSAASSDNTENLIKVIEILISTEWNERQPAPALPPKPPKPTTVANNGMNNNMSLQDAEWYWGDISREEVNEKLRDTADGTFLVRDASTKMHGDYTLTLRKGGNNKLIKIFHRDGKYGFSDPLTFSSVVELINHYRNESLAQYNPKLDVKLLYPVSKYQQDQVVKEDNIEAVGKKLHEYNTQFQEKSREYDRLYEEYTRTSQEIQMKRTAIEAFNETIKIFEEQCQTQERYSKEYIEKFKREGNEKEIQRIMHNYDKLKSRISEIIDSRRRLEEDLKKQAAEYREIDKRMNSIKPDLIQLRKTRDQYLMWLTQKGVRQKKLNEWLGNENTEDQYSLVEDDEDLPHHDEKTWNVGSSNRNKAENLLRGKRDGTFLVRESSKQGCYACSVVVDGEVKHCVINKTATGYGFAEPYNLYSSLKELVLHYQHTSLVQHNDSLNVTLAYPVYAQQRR

With `COC(=O)Nc1cc(C(F)(F)F)c(-c2nc(N3CCOCC3)c3cc(CN4CCN(S(C)(=O)=O)CC4)cn3n2)cn1` [Compound I-33, Methyl (5-(6-((4-(methylsulfonyl)piperazin-1-yl)methyl)-4-morpholinopyrrolo[2,1-f][1,2,4]triazin-2-yl)-4-(trifluoromethyl)pyridin-2-yl)carbamate] as the compound, how does the IC50 [1] read?
The IC50 was 5300 nM.

What about the IC50 [2] of the same compound?
Its IC50 is 3400 nM.

And the IC50 (LG-NCI-H23)?
Its IC50 is 730 nM.

What about the IC50 [3] of the same compound?
Its IC50 is 486 nM.

What about the IC50 (LG-NCI-H460) of the same compound?
Its IC50 is 1520 nM.

And the IC50 (P-PC-3)?
Its IC50 is 1580 nM.

What about the IC50 [4] of the same compound?
Its IC50 is 1330 nM.

What about the IC50 [5] of the same compound?
Its IC50 is 4900 nM.

And the IC50 (B-BT474)?
The IC50 was 62 nM.

What about the IC50 [6] of the same compound?
The IC50 was 10000 nM.

What about the IC50 (O-SKOV-3) of the same compound?
The IC50 was 277 nM.

And the “transduction of PI3K signaling” value [7]?
Its value is “significantly inhibited”.

What about the IC50 [8] of the same compound?
Its IC50 is 2520 nM.

And the IC50 (PI3Kα)?
The IC50 was 2.84 nM.

And the “growth of KYSE 410 xenograft (in words)” value ([9]; 50 mg/kg p.o. every day for 3 weeks)?
The value was “significantly slowed down”.

And the “Relative tumor proliferation rate T/C” value ([9]; d0)?
Its value is 100.00%.

And the “Relative tumor proliferation rate T/C” value ([9]; d3)?
The value was 65.56%.

And the “Relative tumor proliferation rate T/C” value ([9]; d7)?
Its value is 30.11%.

What about the “Relative tumor proliferation rate T/C” value ([9]; d10) of the same compound?
The value was 25.23%.

And the “Relative tumor proliferation rate T/C” value ([9]; d14)?
The value was 13.79%.

What about the “Relative tumor proliferation rate T/C” value ([9]; d17) of the same compound?
The value was 10.51%.

And the “Relative tumor proliferation rate T/C” value ([9]; d21)?
The value was 9.13%.

And the “transduction of PI3K signaling” value [10]?
Its value is “significantly inhibited”.

And the GI50 (KYSE30; KYSE-30, KYSE30, 1st experiment)?
The GI50 was 2640 nM.

What about the GI50 (KYSE30; KYSE-30, KYSE30, 2nd experiment) of the same compound?
Its GI50 is 566 nM.

What about the GI50 (KYSE30; KYSE-30, KYSE30, 3rd experiment) of the same compound?
The GI50 was 531 nM.

What about the GI50 (KYSE30; KYSE-30, KYSE30, mean of three experiments) of the same compound?
The GI50 was 1250 nM.

What about the GI50 (KYSE150; KYSE-150, KYSE150, 1st experiment) of the same compound?
The GI50 was 40 nM.

What about the GI50 (KYSE150; KYSE-150, KYSE150, 2nd experiment) of the same compound?
Its GI50 is 62 nM.

And the GI50 (KYSE150; KYSE-150, KYSE150, 3rd experiment)?
Its GI50 is 38 nM.

And the GI50 (KYSE150; KYSE-150, KYSE150, mean of three experiments)?
Its GI50 is 47 nM.

What about the GI50 (Detroit 562; Detroit 562, Detroit 562, 1st experiment) of the same compound?
The GI50 was 718 nM.

What about the GI50 (Detroit 562; Detroit 562, Detroit 562, 2nd experiment) of the same compound?
Its GI50 is 707 nM.

What about the GI50 (Detroit 562; Detroit 562, Detroit 562, 3rd experiment) of the same compound?
The GI50 was 769 nM.

What about the GI50 (Detroit 562; Detroit 562, Detroit 562, mean of three experiments) of the same compound?
Its GI50 is 731 nM.
